Source: US12404250B2, “PARP inhibitors for treating cancer and asthma” (Oregon Health & Science University, priority 2018, dated 2025)

How the values were obtained:
PARP10cat = target: T1, PARP10cat (Homo sapiens, UniProt Q53GL7); assay: In vitro IC50, PARP10cat; type: biochemical; conditions: SEM from a minimum of three dose-response experiments
T1 construct: bcat; cat; PARP11
T1 sequence (Q53GL7 806-1025 limits assumed): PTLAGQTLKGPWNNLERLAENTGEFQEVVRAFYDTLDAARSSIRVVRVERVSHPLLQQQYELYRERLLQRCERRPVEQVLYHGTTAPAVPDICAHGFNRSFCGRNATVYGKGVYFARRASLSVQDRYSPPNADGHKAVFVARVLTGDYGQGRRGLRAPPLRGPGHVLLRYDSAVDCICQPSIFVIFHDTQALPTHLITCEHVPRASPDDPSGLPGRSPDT

PARP11 = target: T2, PARP11 (Homo sapiens, UniProt Q9NR21); assay: In vitro IC50, PARP11 (plate assay, MARylation of SRPK2 and NXF1); type: biochemical; conditions: SEM from a minimum of three dose-response experiments
T2 sequence (Q9NR21 1-338): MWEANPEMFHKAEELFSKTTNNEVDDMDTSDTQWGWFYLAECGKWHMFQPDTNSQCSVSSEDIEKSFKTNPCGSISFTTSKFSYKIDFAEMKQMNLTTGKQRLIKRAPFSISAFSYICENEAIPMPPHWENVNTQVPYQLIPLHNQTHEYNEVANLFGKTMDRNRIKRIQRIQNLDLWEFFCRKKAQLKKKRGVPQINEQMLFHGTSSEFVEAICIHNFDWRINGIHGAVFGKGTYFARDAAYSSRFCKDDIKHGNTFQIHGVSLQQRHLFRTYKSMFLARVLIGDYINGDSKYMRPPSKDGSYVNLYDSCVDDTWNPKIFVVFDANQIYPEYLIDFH
Excerpt: Curves generated using Prism 7 (Graph Pad); error bars indicate ±SEM from at least two replicates.

PARP15 cat = target: T3, PARP15 cat (Homo sapiens, UniProt Q460N3); assay: In vitro IC50, PARP15 cat; type: biochemical; conditions: SEM from a minimum of three dose-response experiments
T3 construct: cat-wwe; cat
T3 sequence (Q460N3 482-678 limits assumed): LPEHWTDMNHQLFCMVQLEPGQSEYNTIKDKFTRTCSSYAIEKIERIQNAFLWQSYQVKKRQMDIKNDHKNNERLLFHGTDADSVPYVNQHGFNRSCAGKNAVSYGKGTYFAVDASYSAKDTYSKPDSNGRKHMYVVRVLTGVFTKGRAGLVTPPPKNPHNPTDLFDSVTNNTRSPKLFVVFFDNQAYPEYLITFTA

PARP 2 = PARP 2 (Homo sapiens, UniProt Q9UGN5); assay: In vitro IC50, PARP2; type: biochemical; conditions: SEM from a minimum of three dose-response experiments
Chain of PARP 2 (Q9UGN5 whole entry): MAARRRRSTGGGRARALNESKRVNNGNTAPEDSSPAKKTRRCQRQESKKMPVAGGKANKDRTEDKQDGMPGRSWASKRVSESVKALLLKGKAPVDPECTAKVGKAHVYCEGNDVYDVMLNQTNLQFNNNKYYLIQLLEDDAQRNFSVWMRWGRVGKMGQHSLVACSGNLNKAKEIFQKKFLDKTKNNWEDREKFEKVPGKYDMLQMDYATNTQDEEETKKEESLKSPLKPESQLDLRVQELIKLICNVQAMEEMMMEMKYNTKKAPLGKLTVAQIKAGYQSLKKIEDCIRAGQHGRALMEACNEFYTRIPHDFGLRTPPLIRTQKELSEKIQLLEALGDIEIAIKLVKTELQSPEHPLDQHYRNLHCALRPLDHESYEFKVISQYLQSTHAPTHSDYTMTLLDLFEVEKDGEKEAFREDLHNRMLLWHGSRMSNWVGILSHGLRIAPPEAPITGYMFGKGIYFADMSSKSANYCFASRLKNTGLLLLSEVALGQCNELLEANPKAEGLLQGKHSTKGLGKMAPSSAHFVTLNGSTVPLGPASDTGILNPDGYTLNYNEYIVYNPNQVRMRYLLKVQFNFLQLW

PARP 1 = PARP 1 (Homo sapiens, UniProt P09874); assay: In vitro IC50, PARP1; type: biochemical; conditions: SEM from a minimum of three dose-response experiments
Chain of PARP 1 (P09874 whole entry): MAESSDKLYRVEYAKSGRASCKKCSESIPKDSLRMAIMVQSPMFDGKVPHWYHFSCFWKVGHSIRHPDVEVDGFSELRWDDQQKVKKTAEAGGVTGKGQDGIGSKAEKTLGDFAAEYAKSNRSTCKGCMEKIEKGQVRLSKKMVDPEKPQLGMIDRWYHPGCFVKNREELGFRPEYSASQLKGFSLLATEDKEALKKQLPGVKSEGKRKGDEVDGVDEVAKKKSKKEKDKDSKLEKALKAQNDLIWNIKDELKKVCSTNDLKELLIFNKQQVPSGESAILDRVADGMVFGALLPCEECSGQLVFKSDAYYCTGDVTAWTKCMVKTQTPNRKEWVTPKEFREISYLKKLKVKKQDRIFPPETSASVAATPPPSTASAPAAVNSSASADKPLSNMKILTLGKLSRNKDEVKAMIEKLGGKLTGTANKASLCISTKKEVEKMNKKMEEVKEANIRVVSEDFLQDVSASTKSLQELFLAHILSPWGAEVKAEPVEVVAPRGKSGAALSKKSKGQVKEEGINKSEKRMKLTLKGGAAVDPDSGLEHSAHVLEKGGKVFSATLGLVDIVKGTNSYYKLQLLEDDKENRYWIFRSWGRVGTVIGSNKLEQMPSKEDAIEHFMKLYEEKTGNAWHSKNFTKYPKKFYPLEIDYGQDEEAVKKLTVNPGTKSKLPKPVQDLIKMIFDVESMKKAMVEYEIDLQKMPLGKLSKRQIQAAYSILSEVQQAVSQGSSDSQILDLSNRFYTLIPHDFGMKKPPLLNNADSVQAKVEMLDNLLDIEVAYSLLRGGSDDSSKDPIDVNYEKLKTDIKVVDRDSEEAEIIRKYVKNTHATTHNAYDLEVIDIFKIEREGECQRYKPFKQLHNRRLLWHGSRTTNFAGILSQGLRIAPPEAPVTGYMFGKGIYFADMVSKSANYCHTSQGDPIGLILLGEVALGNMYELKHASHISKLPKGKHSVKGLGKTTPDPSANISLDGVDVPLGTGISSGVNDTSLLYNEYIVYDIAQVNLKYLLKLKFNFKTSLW

PARP5 bcat = target: T4, PARP5 bcat (Homo sapiens, UniProt Q9H2K2); assay: In vitro IC50, PARP5bcat; type: biochemical; conditions: SEM from a minimum of three dose-response experiments
T4 construct: bcat
T4 sequence (Q9H2K2 959-1164): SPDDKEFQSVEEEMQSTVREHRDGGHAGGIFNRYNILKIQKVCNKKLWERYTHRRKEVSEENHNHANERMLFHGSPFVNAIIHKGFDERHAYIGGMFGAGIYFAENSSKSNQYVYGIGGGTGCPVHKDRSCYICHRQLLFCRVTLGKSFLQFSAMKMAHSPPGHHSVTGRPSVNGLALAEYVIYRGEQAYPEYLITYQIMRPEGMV

PARP14 cat-wwe = target: T5, PARP14 cat-wwe (Homo sapiens, UniProt Q460N5); assay: In vitro IC50, PARP14 cat-wwe; type: biochemical; conditions: SEM from a minimum of three dose-response experiments
T5 construct: PARP14 cat-wwe; no borders given for the assay protein
T5 sequence (Q460N5 1523-1801 limits assumed): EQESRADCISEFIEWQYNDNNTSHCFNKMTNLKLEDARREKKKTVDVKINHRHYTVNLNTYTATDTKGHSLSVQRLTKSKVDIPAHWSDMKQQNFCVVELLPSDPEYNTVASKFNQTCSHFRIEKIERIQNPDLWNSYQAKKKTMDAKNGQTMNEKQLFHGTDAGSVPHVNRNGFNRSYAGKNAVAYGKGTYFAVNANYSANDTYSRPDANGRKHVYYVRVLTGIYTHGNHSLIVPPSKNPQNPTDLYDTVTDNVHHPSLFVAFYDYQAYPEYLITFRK

PARP 3 = target: T6, PARP 3 (Homo sapiens, UniProt Q9Y6F1); assay: In vitro IC50, PARP3; type: biochemical; conditions: SEM from a minimum of three dose-response experiments
T6 sequence (Q9Y6F1 1-533): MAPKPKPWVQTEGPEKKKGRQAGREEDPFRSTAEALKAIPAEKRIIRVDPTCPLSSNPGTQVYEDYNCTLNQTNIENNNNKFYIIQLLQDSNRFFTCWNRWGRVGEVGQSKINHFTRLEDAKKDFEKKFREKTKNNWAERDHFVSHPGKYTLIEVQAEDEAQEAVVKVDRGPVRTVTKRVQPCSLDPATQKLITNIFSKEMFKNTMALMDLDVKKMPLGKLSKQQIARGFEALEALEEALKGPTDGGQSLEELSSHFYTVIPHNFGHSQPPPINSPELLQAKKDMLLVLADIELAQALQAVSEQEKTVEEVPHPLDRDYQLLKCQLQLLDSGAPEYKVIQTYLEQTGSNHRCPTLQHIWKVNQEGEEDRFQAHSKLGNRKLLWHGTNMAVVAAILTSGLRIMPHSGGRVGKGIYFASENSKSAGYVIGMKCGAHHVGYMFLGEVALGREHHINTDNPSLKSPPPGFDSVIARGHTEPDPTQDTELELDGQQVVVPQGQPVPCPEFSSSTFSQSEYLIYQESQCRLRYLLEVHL

PARP1/2 = target: T7, PARP1/2 (Homo sapiens, UniProt P09874); assay: H2O2-stimulated PARP1/2 activity in HEK 293T cells (Western blot); type: cell-based; conditions: H2O2 500 μM for 15 min, Western blot with ADPr binding reagent
T7 construct: expressed in transfected cells; host or cells: HEK 293T
T7 sequence (P09874 2-1014): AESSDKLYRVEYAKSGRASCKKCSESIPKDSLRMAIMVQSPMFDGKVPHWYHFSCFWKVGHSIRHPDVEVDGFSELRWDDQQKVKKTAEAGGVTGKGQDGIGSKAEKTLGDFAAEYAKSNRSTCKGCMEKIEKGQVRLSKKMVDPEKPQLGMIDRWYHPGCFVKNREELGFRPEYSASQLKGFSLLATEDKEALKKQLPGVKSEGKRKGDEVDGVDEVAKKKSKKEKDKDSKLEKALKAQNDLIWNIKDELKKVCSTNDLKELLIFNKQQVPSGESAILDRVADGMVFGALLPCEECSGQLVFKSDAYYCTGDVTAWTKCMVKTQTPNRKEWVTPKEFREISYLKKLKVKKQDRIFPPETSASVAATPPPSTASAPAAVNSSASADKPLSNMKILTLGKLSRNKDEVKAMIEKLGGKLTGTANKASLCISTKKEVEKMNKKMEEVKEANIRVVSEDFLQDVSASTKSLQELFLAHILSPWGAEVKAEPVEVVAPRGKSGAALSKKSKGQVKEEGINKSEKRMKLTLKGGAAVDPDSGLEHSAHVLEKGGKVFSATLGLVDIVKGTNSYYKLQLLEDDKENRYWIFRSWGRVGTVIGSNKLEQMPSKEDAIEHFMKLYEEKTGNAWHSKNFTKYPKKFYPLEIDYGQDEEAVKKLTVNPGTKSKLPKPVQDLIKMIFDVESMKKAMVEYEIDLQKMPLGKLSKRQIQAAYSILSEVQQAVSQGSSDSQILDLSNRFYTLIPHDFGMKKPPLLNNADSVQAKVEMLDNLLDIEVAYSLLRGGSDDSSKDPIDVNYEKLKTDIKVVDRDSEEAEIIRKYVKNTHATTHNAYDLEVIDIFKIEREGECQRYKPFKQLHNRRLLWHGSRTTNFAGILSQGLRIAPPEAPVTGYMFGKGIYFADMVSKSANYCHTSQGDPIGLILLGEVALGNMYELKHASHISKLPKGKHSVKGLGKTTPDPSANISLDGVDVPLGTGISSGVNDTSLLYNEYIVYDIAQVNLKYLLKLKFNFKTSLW
Protocol: Lysates were prepared and PAR/MARylation was analyzed by Western blot with an ADP-ribose (ADPr) binding reagent. Blot was also probed with antibodies for GFP and actin. The band of interest represents auto-PARylated GFP-PARP1. […] Lysates were prepared and PAR/MARylation was analyzed by Western blot with an ADP-ribose (ADPr) binding reagent. Blot was also probed with antibodies for GFP and actin.
Lysates were prepared and PAR/MARylation was analyzed by Western blot with an ADP-ribose (ADPr) binding reagent. Blot was also probed with antibodies for GFP and actin. The band of interest represents auto-PARylated GFP-PARP1.

Inhibition of H2O2-mediated PARP1 PARylation (PARP½ activity) in cells (PARP1/2)	Compound	IC50 (PARP10cat) [µM]	IC50 (PARP11) [µM]	IC50 (PARP15 cat) [µM]	IC50 (PARP 2) [µM]	IC50 (PARP 1) [µM]	IC50 (PARP5 bcat) [µM]	IC50 (PARP14 cat-wwe) [µM]	IC50 (PARP 3) [µM]
	Cc1ccc2c(=O)[nH]c(CSc3ncccn3)nc2c1C [ITK1, 7,8-dimethyl-2-((pyrimidin-2-ylthio)methyl)quinazolin-4(3H)-one]	19.7 ± 0.95	0.55 ± 0.11	> 30	17.4 ± 3.3	> 30	> 10	8.55 ± 0.8	> 30
	Cc1ccc2c(=O)[nH]c(CSc3ncnc4nc[nH]c34)nc2c1C [ITK2, 2-(((7H-purin-6-yl)thio)methyl)-7,8-dimethylquinazolin-4(3H)-one]	32.8 ± 3.6	4.52 ± 1.4	> 30	> 30	> 30	> 10	7.87 ± 0.2	> 30
	Cc1ccc2c(=O)[nH]c(CSc3nnc(N)[nH]3)nc2c1C [ITK3, 2-(((5-amino-4H-1,2,4-triazol-3-yl)thio)methyl)-7,8-dimethylquinazolin-4(3H)-one]	27.9 ± 3.9	13.6 ± 1.4	> 30	> 30	> 30	> 10	6.73 ± 1.8	> 30
	Cc1ccc2c(=O)[nH]c(CSc3ccc(C(=O)O)cc3)nc2c1C [ITK4, 4-(((7,8-dimethyl-4-oxo-3,4-dihydroquinazolin-2-yl)methyl)thio)benzoic acid]	9.29 ± 0.2	5.5 ± 0.8	6.85 ± 0.99	8.46 ± 1.4	> 30	> 10	8.71 ± 0.8	> 30
	C#Cc1ccc2c(=O)[nH]c(CSc3ccc(C(=O)O)cc3)nc2c1C [ITK5, 4-(((7-ethynyl-8-methyl-4-oxo-3,4-dihydroquinazolin-2-yl)methyl)thio)benzoic acid]	5.4 ± 0.17	1.62 ± 0.33	4.03 ± 0.77	> 30	> 30	> 10	10.8 ± 0.75	> 30
	CNCc1ccc(-c2[nH]c3cc(F)cc4c3c2CCNC4=O)cc1 [Rucaparib, reference compound]		3.4 ± 0.5						
completely inhibits	C[C@]1(c2nc3c(C(N)=O)cccc3[nH]2)CCCN1 [veliparib, reference compound]								
